Where two headings read alike, the source gives them in different places.
Legend:
[1] = target: T1, CIB1 and αIIb interaction (CIB1-GST : F-αIIb peptide) (Homo sapiens, UniProt Q99828); experiment: FP assay, 1536-well qHTS format (primary and confirmatory screen); format: binding; details: for Confirm? (confirmatory screen): YES/NO
T1 construct: made in house; host or cells: BL-21 plus RIL cells (E. coli)
T1 sequence (Q99828 1-191): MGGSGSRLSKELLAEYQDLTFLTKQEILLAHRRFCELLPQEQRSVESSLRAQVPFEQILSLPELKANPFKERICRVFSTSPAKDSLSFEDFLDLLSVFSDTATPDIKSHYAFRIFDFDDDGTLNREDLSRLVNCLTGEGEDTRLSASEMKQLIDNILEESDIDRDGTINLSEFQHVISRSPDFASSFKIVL

[2] = target: T2, GST-CIB1 : F-scrambled peptide (Homo sapiens, UniProt Q99828); experiment: FP scrambled-peptide counter screen, 1536-well format; format: binding; details: for Curve Class (counterscreen): negative sign = inhibitory curve; for IC50: read-out: IC50 [μM] (counterscreen)
T2 construct: made in house; host or cells: BL-21 plus RIL cells (E. coli)
T2 sequence (Q99828 1-191): T1 sequence (Q99828 1-191)

[3] = confirmatory screen, qHTS curve class, negative sign = inhibitory curve
[4] = confirmatory screen, read-out: IC50 [μM] (confirmatory screen)
[5] = qHTS primary screen hits, Table S2, negative = inhibition
[6] = qHTS primary screen hits, Table S2, negative sign = inhibitory curve
[7] = qHTS primary screen hits, Table S2, read-out: IC50
[8] = counterscreen, qHTS curve class
[9] = qHTS primary screen hits, Table S2, negative sign = inhibitory curve, several classes where COUNT > 1
[10] = qHTS FP screen hits, Table S2, negative = inhibition
[11] = qHTS FP screen hits, Table S2, read-out: IC50

For `CN1CCN(c2ccc(Nc3nn4c(=O)c5ccccc5nc4s3)cc2)CC1.O=C(O)C(F)(F)F` [NCGC00186454-01], the “Efficacy (%) (confirmatory screen)” value ([1]; confirmatory screen) was -50%, the “Confirm? (confirmatory screen)” value ([1]; confirmatory screen) was “YES” and the “Curve Class (confirmatory screen)” value [1, 3] was -2.2. For the same molecule, the IC50 [1, 4] was 50.1 µM, the “Efficacy (%)” value [1, 5] was -32% and the “Curve Class” value [1, 6] was -1.4. The IC50 [1, 7] was 12.6 µM, the “Efficacy (%) (counterscreen)” value ([2]; counterscreen) was -37% and the “Curve Class (counterscreen)” value [2, 8] was -2.4. It also gave an IC50 ([2]; counterscreen) of 79.4 µM.
`O=C(Cc1ccc(Cl)c(Cl)c1)Nc1ccc(S(=O)(=O)Nc2cccc(C(=O)O)c2)cc1.O=C(O)C(F)(F)F` [NCGC00248362-01] was tested, and the “CONFIRMATORY SCREEN Confirm?” value ([1]; confirmatory screen, YES/NO call) was “YES”, the “CONFIRMATORY SCREEN Curve Class” value [1, 3] was -1.4 and the “CONFIRMATORY SCREEN Efficacy (%)” value ([1]; confirmatory screen, negative = inhibition) was -27%. For the same molecule, the “Efficacy (%)” value [1, 5] was -20%, the “Curve Class” value [1, 6] was -1.4 and the IC50 [1, 7] was 12.6 µM. For the same molecule, the “COUNTERSCREEN Efficacy (%)” value ([2]; scrambled-peptide counterscreen) was 26%, the “COUNTERSCREEN Confirm?” value ([2]; scrambled-peptide counterscreen, YES/NO call) was “YES” and the “COUNTERSCREEN Curve Class” value ([2]; scrambled-peptide counterscreen, qHTS curve class) was 4.
For `Cc1cnc(-c2ccccc2C(C)C)nc1NCc1ccc(-c2ccc(F)nc2)cc1.O=C(O)C(F)(F)F` [NCGC00253893-01], the “Efficacy (%) (confirmatory screen)” value ([1]; confirmatory screen) was -124%, the “Confirm? (confirmatory screen)” value ([1]; confirmatory screen) was “YES” and the “Curve Class (confirmatory screen)” value [1, 3] was -2.1. The IC50 [1, 4] was 112 µM, the “Efficacy (%)” value [1, 5] was -52% and the “Curve Class” value [1, 9] was -2.4. For the same molecule, the IC50 [1, 7] was 50.1 µM, the “Efficacy (%) (counterscreen)” value ([2]; counterscreen) was -90% and the “Curve Class (counterscreen)” value [2, 8] was -2.1. It also gave an IC50 ([2]; counterscreen) of 44.7 µM.
With `Cc1ccc(C)n1-c1sccc1C(=O)O` [NCGC00253437-01] the “Efficacy (%) (confirmatory screen)” value ([1]; confirmatory screen) was -97%, the “Confirm? (confirmatory screen)” value ([1]; confirmatory screen) was “YES” and the “Curve Class (confirmatory screen)” value [1, 3] was -1.1. The IC50 [1, 4] was 22.4 µM, the “Efficacy (%)” value [1, 5] was -59% and the “Curve Class” value [1, 9] was -2.2. The IC50 [1, 7] was 44.7 µM, the “Efficacy (%) (counterscreen)” value ([2]; counterscreen) was -36% and the “Confirm? (counterscreen)” value ([2]; counterscreen, YES/NO) was “YES”. For the same molecule, the “Curve Class (counterscreen)” value [2, 8] was -1.2 and the IC50 ([2]; counterscreen) was 7.9 µM.
In the case of `CCOC(=O)c1nn(-c2ccc(OC)cc2)c(=O)c2c(N)scc12` [NCGC00053250-03], the “Efficacy (%) (confirmatory screen)” value ([1]; confirmatory screen) is reported as -69%, the “Confirm? (confirmatory screen)” value ([1]; confirmatory screen) is reported as “YES” and the “Curve Class (confirmatory screen)” value [1, 3] is reported as -2.4. The IC50 [1, 4] was 70.8 µM, the “Efficacy (%)” value [1, 10] was -56% and the “Curve Class” value ([1]; qHTS FP screen hits, Table S2, one class per curve where COUNT > 1, negative sign = inhibitory curve) was -1.2. For the same molecule, the IC50 [1, 11] was 39.8 µM, the “Efficacy (%) (counterscreen)” value ([2]; counterscreen) was -59% and the “Curve Class (counterscreen)” value [2, 8] was -2.2. It also gave an IC50 ([2]; counterscreen) of 20 µM.
`CCOC(=O)C1CCN(C(=O)C(C)(C)NC(=O)Nc2ccc(C#N)cc2)CC1.O=C(O)C(F)(F)F` [NCGC00242565-01] was tested, and the “Efficacy (%) (confirmatory screen)” value ([1]; confirmatory screen) was -28%, the “Confirm? (confirmatory screen)” value ([1]; confirmatory screen) was “YES” and the “Curve Class (confirmatory screen)” value [1, 3] was -1.4. The IC50 [1, 4] was 7.9 µM, the “Efficacy (%)” value [1, 10] was -22% and the IC50 [1, 11] was 2.2 µM. The “Efficacy (%) (counterscreen)” value ([2]; counterscreen) was -30%, the “Curve Class (counterscreen)” value [2, 8] was -1.4 and the IC50 ([2]; counterscreen) was 15.8 µM.
With `O=C1OC(c2ccc(O)c(S(=O)(=O)[O-])c2)(c2ccc(O)c(S(=O)(=O)[O-])c2)c2c(Br)c(Br)c(Br)c(Br)c21.[Na+].[Na+]` [NCGC00159391-03] the “Curve Class (confirmatory screen)” value ([1]; Table S3, confirmatory screen, qHTS curve class, a negative sign marks inhibitory curves) was 4, the “Efficacy (%) (confirmatory screen)” value ([1]; Table S3, confirmatory screen, negative = inhibition) was -20% and the “Efficacy (%)” value [1, 5] was -32%. The “Curve Class” value [1, 9] was -1.4, the IC50 [1, 7] was 15.8 µM and the “Efficacy (%) (counterscreen)” value ([2]; Table S3, counterscreen, negative = inhibition) was 31%. It also gave an IC50 ([2]; Table S3, counterscreen) of 50.1 µM.

— PMC11249646, “Small-Molecule Disruptors of the Interaction between Calcium- and Integrin-Binding Protein 1 and Integrin αIIbβ3 as Novel Antiplatelet Agents” (ACS Pharmacology & Translational Science, 2024)
